Test results from article PMC2814954 (Biochemical pharmacology, 2009).

Tests used:
[1] = system: Caco-2 cells; experiment: C1-BODIPY-C12 fatty acid uptake inhibition in Caco-2 cells; assay type: cell-based, human; details: for IC50: Homo sapiens, Caco-2, read-out: Caco-2 IC50; for % Transport Standard Assay: compound 40 μM, Caco-2 cells, % of no-compound control, mean ± SD
[2] = system: HepG2 cells; experiment: C1-BODIPY-C12 fatty acid uptake inhibition in HepG2 cells; assay type: cell-based; details: Homo sapiens, HepG2, read-out: HepG2 IC50
[3] = system: 3T3-L1 adipocytes; experiment: C1-BODIPY-C12 fatty acid uptake inhibition in 3T3-L1 adipocytes; assay type: cell-based; details: Mus musculus, 3T3-L1, read-out: 3T3-L1 Adipocytes IC50
[4] = system: Caco-2 cells; experiment: Reversibility of fatty acid uptake inhibition after 24 h recovery; assay type: cell-based, human; details: compound 40 μM for 1 h, washed, mean ± SD
[5] = system: Caco-2 cells; experiment: Glucose; assay type: cell-based, human; details: 1 h preincubation
[6] = system: long chain acyl-CoA synthetase (Acsl); experiment: Oleoyl-CoA synthetase; assay type: biochemical, human; details: Caco-2 cells pretreated 1 h; for Oleoyl CoA synthetase activity after compound treatment: rinsed, total cell extracts
[7] = system: Caco-2 cells; experiment: MTT cytotoxicity assay in Caco-2 cells; details: 24 h
[8] = 50 μM, Caco-2 cells (10 times the IC50 dosage)

Structure (SMILES)	IC50 [1] [µM]	% Transport Standard Assay [1] [%]	IC50 [2] [µM]	IC50 [3] [µM]	% Transport after 24 Hour Recovery [4] [%]	2-NBDG glucose transport ([5]; 20 μM)	Inhibition of oleoyl CoA synthetase activity ([6]; 50 μM (10 times the IC50), cell extracts)	Cellular toxicity (MTT assay) [7, 8]	Oleoyl CoA synthetase activity after compound treatment [6]	2-NBDG glucose transport ([5]; 50 μM)	Cellular toxicity (MTT assay) ([7]; 100 μM, Caco-2 cells)
COc1cc(/C=C2/SC(=S)N(c3cccc(Cl)c3)C2=O)cc(Br)c1O [CB-2, (5E)-5-[(3-bromo-4-hydroxy-5-methoxyphenyl)methylene]-3-(3-chlorophenyl)-2-thioxothiazolidin-4-one]	3.99 ± 0.32	46 ± 3	7.55 ± 1.23	231 ± 33.5	93 ±13	not affected	about 50%	not toxic			
O=c1cc(-c2ccc([N+](=O)[O-])cc2)nc2c(-c3ccc(Cl)cc3)c(Cc3ccccc3)[nH]n12 [CB-5, 2-benzyl-3-(4-chlorophenyl)-5-(4-nitrophenyl)-1H-pyrazolo[5,1-b]pyrimidin-7-one]	6.34 ± 0.93	54 ± 1	10.2 ± 1.26	901 ± 205	88 ±18	not affected		not toxic	not reduced		
Oc1c(C2=NCCNC(C(F)(F)F)=C2)ccc2ccccc12 [CB-6, 2-[7-(trifluoromethyl)-2,3-dihydro-1H-1,4-diazepin-5-yl]naphthalen-1-ol]	4.93 ± 0.4				74 ± 12	not affected		not toxic	not reduced		
O=C1C=CC=CC1=C1NNC2(S1)C(=O)Nc1ccc(Br)cc12 (stereo not drawn) [CB-16, 5′-bromo-5-(6-oxocyclohexa-2,4-dien-1-ylidene)spiro[1,3,4-thiadiazolidine-2,3′-1H-indole]-2′-one]	6.66 ± 0.64				99 ± 16	not affected		not toxic	not reduced		
OCC(CCc1c[nH]c2ccccc12)c1c[nH]c2ccccc12 (stereo not drawn) [NCI-3, 2,4-bis(1H-indol-3-yl)butan-1-ol]	29.2 ± 3.64	52 ± 2	84.1 ± 14.1	143 ± 22.4					not reduced	reduced 2-NBDG transport slightly	not toxic
